# Structures can show the parent of a compound that is named as a salt. Where a SMILES comes first, the peptide text is derived from it. Bridges are numbered along the chain shown (N, C = ends). [ ]: non-standard residue; d: D form. The star is where a group is joined. ξ: configuration not given here. Thr(3ξ) = CC(O)[C@H](N)C(=O)O; Dab = NCC[C@H](N)C(=O)O; Aoc = NCCCCCCCC(=O)O; X2 = NC1CCCC1C(=O)*; Ava = NCCCCC(=O)O; βAla = NCCC(=O)O
# Tests used:
# A. baumannii NCTC7844 = test: MIC susceptibility testing, broth microdilution in CaMHB; assay type: cell-based, Acinetobacter baumannii
# Experimental: (§1) To evaluate the potency and spectrum of the compounds, susceptibility testing was performed against four strains of each of the four Gram negative pathogens, Escherichia coli, Pseudomonas aeruginosa, Klebsiella pneumoniae and Acinetobacter baumannii.
# (§2) The day before testing, 3 to 4 colonies were picked from fresh Mueller-Hinton Agar (MHA) plate and transferred into 10 mL of Cation adjusted MHB (CaMHB). Cultures were incubated at 37° C. 250 rpm for 18-20 hours before being diluted 100-fold in fresh CaMHB. The subcultures were grown further until the OD600 reached 0.2-0.3 corresponding to […]. The actively growing cultures were diluted 100-fold in fresh medium and used for the inoculum.
# (§3) The assays were performed in duplicate.
# (§4) Data was obtained under similar conditions to Table 4 except that different batches of cation-adjusted Muller-Hinton broth were used. The MIC values for these compounds are compared with those values obtained for Polymyxin B, Colistin Sulphate, CB-182,804 and NAB739 (as the TFA salt). CB-182,804 is a polymyxin decapeptide derivative with an aryl urea substituent at the N-terminus, which has been claimed to have lower toxicity than Polymyxin B (compound 5 in WO 2010/075416. See page 37). NAB739 has been described previously by Vaara et al.
# A. baumannii NCTC13423 = test: as above; assay type: cell-based, Acinetobacter baumannii
# Experimental: as §1, §2, §3, §4
# A. baumannii ATCC19606 = test: as above; assay type: cell-based, Acinetobacter baumannii
# Experimental: as §1, §2, §3, §4
# A. baumannii ATCCBAA-747 = test: as above; assay type: cell-based, Acinetobacter baumannii
# Experimental: as §1, §2, §3, §4
# [1] = system: K. pneumoniae ATCCBAA-1706; test: as above; assay type: cell-based, Klebsiella pneumoniae
# Experimental: as §1, §2, §3, §4
# K. pneumoniae NCTC8172 = test: as above; assay type: cell-based, Klebsiella pneumoniae
# Experimental: as §1, §2, §3, §4
# K. pneumoniae NCTC7427 = test: as above; assay type: cell-based, Klebsiella pneumoniae
# Experimental: as §1, §2, §3, §4
# K. pneumoniae ATCC 4352 = test: as above; assay type: cell-based, Klebsiella pneumoniae
# Experimental: as §1, §2, §3, §4
# E. coli NCTC12900 = test: as above; assay type: cell-based, Escherichia coli
# Experimental: as §1, §2, §3, §4
# E. coli NCTC9001 = test: as above; assay type: cell-based, Escherichia coli
# Experimental: as §1, §2, §3, §4
# E. coli ATCC25922 = test: as above; assay type: cell-based, Escherichia coli
# Experimental: as §1, §2, §3, §4
# E. coli ATCC700928 = test: as above; assay type: cell-based, Escherichia coli
# Experimental: as §1, §2, §3, §4
# P. aeruginosa ATCC10145 = test: as above; assay type: cell-based, Pseudomonas aeruginosa
# Experimental: as §1, §2, §3, §4
# P. aeruginosa ATCC27853 = test: as above; assay type: cell-based, Pseudomonas aeruginosa
# Experimental: as §1, §2, §3, §4
# [2] = system: P. aeruginosa ATCCCRM-9027; test: as above; assay type: cell-based, Pseudomonas aeruginosa
# Experimental: as §1, §2, §3, §4
# P. aeruginosa ATCC 9721 = test: as above; assay type: cell-based, Pseudomonas aeruginosa
# Experimental: as §1, §2, §3, §4
# [3] = Pharmacokinetic and urinary clearance studies in rats; assay type: in vivo; settings: male, Sprague Dawley, rat, in vivo, iv, 1 mg/kg
# Experimental: Drug solutions were prepared at 4 mg/mL in Normal Saline and the pH adjusted to 6-7 by adding the appropriate volume of 0.1 M H2SO4 or 4.2% NaHCO3. The solutions were filter-sterilized and stored at −80° C. before use. On the day of the experiment, drug solutions were diluted to 1 mg/mL with sterile Normal Saline.
# Groups of 3 male Sprague Dawley rats were acclimatised for a minimum of 4 days before the study. Rats were anesthetized using isofluorane and a cannula was inserted into the jugular vein. One day after surgery, rats were dosed with an intravenous bolus injection of the solution at 1 mg/kg through the cannula, followed by washing with Normal Saline. Blood was collected manually through the cannula prior to administration of the compound and at 0.08, 0.25, 0.5, 1, 3, 6, 8 and 24 h thereafter. Plasma was harvested by centrifugation immediately after blood collection. Twenty-four hour urine samples were collected prior to and after administration of the compound in 0-4 h, 4-6 h, and 6-24 h intervals. Plasma and urine samples were frozen at −20° C.
# Determination of the plasma and urine concentrations of the drug was performed by Liquid Chromatography Mass Spectrometry (LC-MS/MS). Before analysis the plasma and urine samples were prepared as follows. Plasma samples were thawed on the day of analysis and mixed with 3 volumes of acetonitrile containing 0.1% (v/v) formic acid and 100 ng/mL of internal standard. After centrifugation, supernatants were transferred to a 96-well plate and diluted 1:1 with water ready for analysis by LC-MS/MS. Urine samples were purified by solid-phase extraction (SPE) on Oasis HLB cartridges (Waters, UK) eluting with 100% methanol. An aliquot was transferred to a 96 well plate and diluted 1:1 with water before addition of internal standard solution, ready for analysis by LC-MS/MS.
# The pharmacokinetic parameters were determined by non-compartmental analysis using WinNonLin v5.3. The urinary recovery was recorded as the percentage of intact drug recovered in the urine for the first 24 h after injection.
# [4] = K. pneumoniae ATCC 4352, Table 4
# [5] = P. aeruginosa ATCCCRM-9027, Table 4
# [6] = P. aeruginosa ATCC 9721, Table 4
# [7] = Table 4A, different batches of cation-adjusted Muller-Hinton broth
SMILES,MIC (A. baumannii NCTC7844; Table 4),MIC (A. baumannii NCTC13423; Table 4),MIC (A. baumannii ATCC19606; Table 4),MIC (A. baumannii ATCCBAA-747; Table 4),MIC ([1]; Table 4),MIC (K. pneumoniae NCTC8172; Table 4),MIC (K. pneumoniae NCTC7427; Table 4),MIC (K. pneumoniae ATCC 4352; [4]),MIC (E. coli NCTC12900; Table 4),MIC (E. coli NCTC9001; Table 4),MIC (E. coli ATCC25922; Table 4),MIC (E. coli ATCC700928; Table 4),MIC (P. aeruginosa ATCC10145; Table 4),MIC (P. aeruginosa ATCC27853; Table 4),"MIC [2, 5]",MIC (P. aeruginosa ATCC 9721; [6]),also measured
"CC(C)C[C@@H]1NC(=O)[C@@H](Cc2ccccc2)NC(=O)[C@H](CCN)NC(=O)[C@@H](NC(=O)[C@H](CCN)NC(=O)[C@@H](NC(=O)CN)C(C)O)CCNC(=O)[C@H](C(C)O)NC(=O)[C@H](CCN)NC(=O)[C@H](CCN)NC1=O (stereo partly shown) [Example 3, 2-Aminoethanoyl Polymyxin B Nonapeptide, Sulphate Salt] (H-G[Thr(3ξ)][Dab][Dab][Dab][dF]L[Dab][Dab][Thr(3ξ)]; lactam 4-C)",16 micrograms/mL,16 micrograms/mL,2 micrograms/mL,>32 micrograms/mL,16 micrograms/mL,>32 micrograms/mL,0.5 micrograms/mL,1 micrograms/mL,8 micrograms/mL,4 micrograms/mL,2 micrograms/mL,4 micrograms/mL,0.25 micrograms/mL,0.5 micrograms/mL,0.125 micrograms/mL,0.125 micrograms/mL,–
"CC(C)C[C@@H]1NC(=O)[C@@H](Cc2ccccc2)NC(=O)[C@H](CCN)NC(=O)[C@@H](NC(=O)[C@H](CCN)NC(=O)[C@@H](NC(=O)CCN)C(C)O)CCNC(=O)[C@H](C(C)O)NC(=O)[C@H](CCN)NC(=O)[C@H](CCN)NC1=O (stereo partly shown) [Example 4, 3-Aminopropanoyl Polymyxin B Nonapeptide, Sulphate Salt] (H-[βAla][Thr(3ξ)][Dab][Dab][Dab][dF]L[Dab][Dab][Thr(3ξ)]; lactam 4-C)",4 micrograms/mL,1 micrograms/mL,1 micrograms/mL,1 micrograms/mL,0.25 micrograms/mL,2 micrograms/mL,0.06 micrograms/mL,0.125 micrograms/mL,1 micrograms/mL,0.25 micrograms/mL,2 micrograms/mL,0.06 micrograms/mL,0.5 micrograms/mL,0.125 micrograms/mL,0.25 micrograms/mL,0.25 micrograms/mL,AUC(0-inf) [3]: 2030 ng·h/mL; Cmax [3]: 2520 ng/mL; Vd [3]: 0.69 L/kg; clearance [3]: 8.2 mL/min/kg; half-life [3]: 79.8 min
"CC(C)C[C@@H]1NC(=O)[C@@H](Cc2ccccc2)NC(=O)[C@H](CCN)NC(=O)[C@@H](NC(=O)[C@H](CCN)NC(=O)[C@@H](NC(=O)CCCCCCCN)C(C)O)CCNC(=O)[C@H](C(C)O)NC(=O)[C@H](CCN)NC(=O)[C@H](CCN)NC1=O (stereo partly shown) [Example 9, 8-Aminooctanoyl Polymyxin B Nonapeptide, Sulphate Salt] (H-[Aoc][Thr(3ξ)][Dab][Dab][Dab][dF]L[Dab][Dab][Thr(3ξ)]; lactam 4-C)",>32 micrograms/mL,>32 micrograms/mL,16 micrograms/mL,>32 micrograms/mL,0.5 micrograms/mL,>32 micrograms/mL,0.5 micrograms/mL,0.5 micrograms/mL,1 micrograms/mL,2 micrograms/mL,2 micrograms/mL,1 micrograms/mL,2 micrograms/mL,0.5 micrograms/mL,0.5 micrograms/mL,0.5 micrograms/mL,–
"CC(C)C[C@@H]1NC(=O)[C@@H](Cc2ccccc2)NC(=O)[C@H](CCN)NC(=O)[C@@H](NC(=O)[C@H](CCN)NC(=O)[C@@H](NC(=O)C2CCCC2N)C(C)O)CCNC(=O)[C@H](C(C)O)NC(=O)[C@H](CCN)NC(=O)[C@H](CCN)NC1=O (stereo partly drawn) [Example 11, (1R,S/2R,S)-2-Aminocyclopentanecarbonyl Polymyxin B Nonapeptide, Sulphate Salt] (X2-[Thr(3ξ)][Dab][Dab][Dab][dF]L[Dab][Dab][Thr(3ξ)]; lactam 3-C)",4 micrograms/mL,0.5 micrograms/mL,2 micrograms/mL,1 micrograms/mL,0.25 micrograms/mL,2 micrograms/mL,0.25 micrograms/mL,0.5 micrograms/mL,2 micrograms/mL,0.5 micrograms/mL,2 micrograms/mL,0.125 micrograms/mL,0.25 micrograms/mL,0.125 micrograms/mL,0.125 micrograms/mL,0.25 micrograms/mL,–
"CC(C)C[C@@H]1NC(=O)[C@@H](Cc2ccccc2)NC(=O)[C@H](CCN)NC(=O)[C@@H](NC(=O)[C@H](CCN)NC(=O)[C@@H](NC(=O)CCCCN)C(C)O)CCNC(=O)[C@H](C(C)O)NC(=O)[C@H](CCN)NC(=O)[C@H](CCN)NC1=O (stereo partly shown) [Example 15, 5-Aminopentanoyl polymyxin B nonapeptide] (H-[Ava][Thr(3ξ)][Dab][Dab][Dab][dF]L[Dab][Dab][Thr(3ξ)]; lactam 4-C)",–,–,–,–,–,–,–,–,–,–,–,–,–,–,–,–,"MIC (A. baumannii NCTC7844; [7]): 8 micrograms/mL; MIC (A. baumannii NCTC13423; [7]): 4 micrograms/mL; MIC (A. baumannii ATCC19606; [7]): 1 micrograms/mL; MIC (A. baumannii ATCCBAA-747; [7]): 8 micrograms/mL; MIC [1, 7]: 0.5 micrograms/mL; MIC (K. pneumoniae NCTC8172; [7]): 4 micrograms/mL; MIC (K. pneumoniae NCTC7427; [7]): 0.25 micrograms/mL; MIC (K. pneumoniae ATCC 4352; K. pneumoniae ATCC4352, Table 4A, different batches of cation-adjusted Muller-Hinton broth): 0.5 micrograms/mL; MIC (E. coli NCTC12900; [7]): 2 micrograms/mL; MIC (E. coli NCTC9001; [7]): 2 micrograms/mL; MIC (E. coli ATCC25922; [7]): 2 micrograms/mL; MIC (E. coli ATCC700928; [7]): 1 micrograms/mL; MIC (P. aeruginosa ATCC10145; [7]): 1 micrograms/mL; MIC (P. aeruginosa ATCC27853; [7]): 0.25 micrograms/mL; MIC ([2]; P. aeruginosa AATCCRM 9027, Table 4A, different batches of cation-adjusted Muller-Hinton broth): 0.125 micrograms/mL; MIC (P. aeruginosa ATCC 9721; P. aeruginosa ATCC9721, Table 4A, different batches of cation-adjusted Muller-Hinton broth): 0.125 micrograms/mL"
